From PubChem BioAssay (NCI)
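In this assay, cells in 96-well plates receive the compound at five concentrations for 48 hours. Endpoints are linearly interpolated between the surrounding concentrations. At the GI50, growth is halved. TGI: concentration producing complete growth inhibition.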

Tests used:
Assay in all cases: DTP human tumour cell line panel, 48 h
[1] = test system: 786-0 renal
[2] = test system: COLO 205 colon
[3] = test system: OVCAR-4 ovarian
[4] = test system: CCRF-CEM leukemia
[5] = test system: A498 renal
[6] = test system: MOLT-4 leukemia
[7] = test system: UO-31 renal
[8] = test system: SN12C renal
[9] = test system: PC-3 prostate
[10] = test system: DU-145 prostate

| SMILES | TGI [1] [µM] | TGI [2] [µM] | TGI [3] [µM] | TGI [4] [µM] | TGI [5] [µM] | TGI [6] [µM] | TGI [7] [µM] | TGI [8] [µM] | GI50 [9] [µM] | TGI [9] [µM] | GI50 [1] [µM] | GI50 [2] [µM] | GI50 [3] [µM] | GI50 [10] [µM] | TGI [10] [µM] | GI50 [5] [µM] | GI50 [6] [µM] | GI50 [7] [µM] | GI50 [8] [µM] | GI50 [4] [µM] |
| --- | --- | --- | --- | --- | --- | --- | --- | --- | --- | --- | --- | --- | --- | --- | --- | --- | --- | --- | --- | --- |
| O=C1NC(=O)c2c1n(Cc1ccccc1)c(=O)n2Cc1ccccc1 | > 100 | > 100 | > 100 | > 100 | 77.9 | > 100 | > 100 | > 100 | – | – | – | – | – | – | – | – | – | – | – | – |
| CC1=N/C(=C\c2ccc(/C=C3/N=C(C)OC3=O)cc2)C(=O)O1 | > 100 | > 100 | > 100 | > 100 | > 100 | – | > 100 | > 100 | – | – | – | – | – | – | – | – | – | – | – | – |
| CCc1cccc(C)c1NC(=O)CCc1nc(=S)[nH][nH]1 | > 100 | – | > 100 | > 100 | – | > 100 | > 100 | > 100 | – | – | – | – | – | – | – | – | – | – | – | – |
| N#C/C(=C\c1cc(OCc2ccccc2)c(OCc2ccccc2)cn1)C(N)=O | > 100 | > 100 | > 100 | > 100 | > 100 | 52.4 | > 100 | > 100 | – | – | – | – | – | – | – | – | – | – | – | – |
| O=C1[C@@H]2C(c3c(Cl)cccc3Cl)=NO[C@@H]2C(=O)N1c1ccc(Cc2ccc(N3C(=O)[C@H]4C(c5c(Cl)cccc5Cl)=NO[C@H]4C3=O)cc2)cc1 | > 100 | > 100 | > 100 | > 100 | > 100 | > 100 | > 100 | > 100 | – | – | – | – | – | – | – | – | – | – | – | – |
| Cc1nc(N)nc(CCC(=O)Nc2cccc(C(F)(F)F)c2)c1-c1ccc(Cl)cc1 | > 100 | > 100 | > 100 | > 100 | > 100 | > 100 | > 100 | > 100 | – | – | – | – | – | – | – | – | – | – | – | – |
| CCc1ccccc1NC(=O)c1cccc([N+](=O)[O-])c1O | > 100 | 31.4 | > 100 | > 100 | 88.2 | > 100 | 71.6 | > 100 | – | – | – | – | – | – | – | – | – | – | – | – |
| COC(=O)OC1C(O[C@H]2C[C@H]3[C@@H]4CC=C5C[C@@H](O)CC[C@]5(C)[C@H]4CC[C@]3(C)[C@H]2[C@H](C)C(=O)CCC(C)C)OCC(O)C1OC1OCC(O)C(O)C1OC(=O)c1ccc(OC)cc1 (stereo partly drawn) | 0.503 | 0.253 | > 27.5 | – | 0.0108 | 0.0178 | 0.0898 | > 27.5 | 0.00436 | 0.29 | < 0.00275 | 0.034 | 0.0823 | 0.0127 | 5.18 | < 0.00275 | 0.00695 | 0.017 | 1.46 | – |
| O=[N+]([O-])c1ccc(Cl)c2c([N+](=O)[O-])cccc12 | > 10 | > 10 | > 10 | > 10 | – | > 10 | – | > 10 | – | > 10 | – | – | – | – | – | – | – | – | – | – |
| CCN(CC)CCCNc1ccc(C)c2sc3ccccc3c(=O)c12 | 2.18 | 0.384 | 33 | 2.82 | – | 1.35 | 2.07 | 7.51 | 0.758 | 2.57 | 0.822 | 0.189 | 2.12 | 1.04 | 2.44 | – | 0.384 | 0.514 | 1.09 | 0.96 |
| N#Cc1nc2c(S(=O)(=O)c3ccc(Cl)cc3)c(N)n(Nc3cccc(Cl)c3)c2nc1C#N | – | – | – | – | – | 0.103 | > 100 | – | 0.00279 | – | 0.0389 | – | 0.0166 | – | > 100 | – | 0.0162 | 0.333 | 0.033 | 0.0101 |
| COC(=O)C1C(C(=O)OC)C2C(=O)C3C(C(=O)OC)C(C(=O)OC)C3C(=O)C12 (stereo not drawn) | > 100 | > 100 | > 100 | > 100 | > 100 | > 100 | – | > 100 | – | – | – | – | – | – | – | – | – | – | – | – |
| N#CC(C(=O)C(=O)Nc1c(Cl)cccc1Cl)c1ccccc1 (stereo not drawn) | > 100 | > 100 | > 100 | > 100 | > 100 | > 100 | > 100 | > 100 | – | – | > 100 | > 100 | > 100 | – | – | > 100 | > 100 | > 100 | > 100 | > 100 |
| COc1cc(Nc2cnc3ccc(C(F)(F)F)cc3n2)cc(OC)c1OC | > 100 | > 100 | – | > 100 | – | > 100 | > 100 | > 100 | – | – | – | – | – | – | – | – | – | – | – | – |
| O=[N+]([O-])c1ccccc1C1SCc2nc3ccccc3n21 (stereo not drawn) | > 100 | – | > 100 | > 100 | > 100 | > 100 | > 100 | > 100 | – | – | – | – | – | – | – | – | – | – | – | – |
| CCCCCCCCCCCC[N+]1(CCCCCCCCCCCC)CCCC(C)C1 (stereo not drawn) | 1.66 | – | – | – | 2.52 | – | – | – | 0.167 | 0.536 | 0.412 | – | – | 0.57 | 1.87 | 1.26 | – | – | – | – |
| Nc1ncnc2c1N=C(c1ccc3c(c1)OCO3)CC(c1ccc(Cl)cc1)N2 (stereo not drawn) | > 100 | > 100 | 35.2 | – | > 100 | > 100 | > 100 | > 100 | 9.06 | 22.1 | 21.7 | 15 | 4.58 | 16.8 | 33.3 | 5.93 | 5.85 | 7.47 | 80.4 | – |
| Cc1ccc2c(c1)CN1c3ccc(C)cc3CN2C1c1ccccc1O | > 100 | > 100 | > 100 | > 100 | – | > 100 | 88.2 | > 100 | – | – | – | – | – | – | – | – | – | – | – | – |
| O=C(Nc1ccc(N=C=S)cc1Cl)c1cc(Br)cc(Br)c1O | 75.2 | > 100 | > 100 | – | – | 69.4 | > 100 | 24.1 | – | 54.5 | – | – | – | – | 39.4 | – | – | – | – | – |
| COC(=O)/C=C(/C(=O)OC)C1(C)c2cc(C(=O)OC)c(C(=O)OC)c(N)c2C(=N)N1c1ccccc1 (stereo not drawn) | 74.4 | 29.7 | – | 50.4 | 88.9 | 46.2 | 47.1 | 48.4 | – | – | – | – | – | – | – | – | – | – | – | – |
| OCc1cc2c(cn1)[nH]c1ccc(NCc3ccccc3)cc12 | 58.4 | 37 | > 100 | 64.7 | 71.7 | 55.8 | 82.7 | > 100 | – | – | – | – | – | – | – | – | – | – | – | – |
| O=C(NC1C(=O)NNC1c1cccc([N+](=O)[O-])c1)c1ccccc1 (stereo not drawn) | > 100 | > 100 | > 100 | > 100 | – | > 100 | > 100 | > 100 | – | – | – | – | – | – | – | – | – | – | – | – |
| O=C(NCCNCCO)c1ccc2c(c1)oc1cc3ccccc3c(=O)n12 | > 50 | 47.3 | > 50 | – | – | > 50 | > 50 | > 50 | 35.5 | > 50 | > 50 | 18.9 | > 50 | 41.2 | > 50 | – | 44.3 | 16.6 | 29.1 | – |
| COC(=O)C1C(=O)O[C@@H](c2ccc3c(c2)OCO3)C1C(=O)OC (mixture of isomers) | > 100 | > 100 | > 100 | > 100 | > 100 | > 100 | > 100 | > 100 | – | – | – | – | – | – | – | – | – | – | – | – |
| NNC(=O)C(=O)N/N=C1/CCCC1C(=O)CCC(=O)Nc1ccc(Cl)cc1 (stereo not drawn) | > 100 | > 100 | > 100 | > 100 | > 100 | > 100 | > 100 | > 100 | – | – | – | – | – | – | – | – | – | – | – | – |
| CCOC(=O)c1nc(C)oc1C(F)(F)F | > 100 | > 100 | > 100 | > 100 | > 100 | > 100 | > 100 | > 100 | – | – | – | – | – | – | – | – | – | – | – | – |
| COc1nc2c(c(O)c(C)c(=O)n2OC2OCC(OC(C)=O)C(OC(C)=O)C2OC(C)=O)c(=O)n1C (stereo not drawn) | > 100 | > 100 | > 100 | > 100 | – | > 100 | > 100 | > 100 | – | – | – | – | – | – | – | – | – | – | – | – |
| FC(F)(F)Oc1cccc(-c2cc(NCCCCCCNc3cc(-c4cccc(OC(F)(F)F)c4)nc4ccc(N5CCCC5)cc34)c3cc(N4CCCC4)ccc3n2)c1 | 3.49 | – | 3.19 | – | 3.57 | – | 2.88 | 3.06 | 2.02 | 4.42 | 1.8 | – | 1.7 | 2.46 | 5.76 | 2.05 | – | 1.54 | 1.64 | – |
| COCC([C@@H](O)C(O)C(=O)NCC[C@@H](C)c1nc(/C=C/CC2OC3(C[C@H](O)C2C)OC(C(C[C@H](O)C(C)[C@H](O)C(C)/C=C(C)/C(C)=C/C=C/C(C)=C/C#N)OC)[C@@H](OP(=O)(O)O)C3(C)C)co1)N(C)C (stereo partly drawn) | 0.000314 | 0.000309 | 0.00274 | – | 0.00333 | 0.00248 | 0.00279 | 0.00034 | – | 0.000321 | – | – | – | – | 0.000322 | – | – | – | – | – |
| C[C@]12Cc3cn[nH]c3C(=O)C1CC[C@@H]1C2CC[C@@]2(C)C1CC[C@@H]2O (stereo partly drawn) | > 100 | > 100 | > 100 | > 100 | > 100 | > 100 | > 100 | > 100 | – | – | – | – | – | – | – | – | – | – | – | – |
